This note sets out measurements from patent US9358247B2, “Methods and compositions for promoting activity of anti-cancer therapies” (Oncology Research International Limited, priority 2006, dated 2016).

Read-outs that look alike come from different tables or passages of the source. Bounds are passed on as bounds.

The test system of experiment [1] is K562 cell line. The experiment is described as follows: Cancer cell growth inhibition, SRB dye assay (single agents and 50:50 IC50 mixtures). In kind it is cell-based, human. The procedure: (§1) Cancer cells were seeded the day before application of drug in triplicate or quadruplicate in 96-well plates, allowed to grow in the presence of drug for 6 days before cell growth relative to untreated control wells was determined with a dye assay.
(§2) Cells were seeded in triplicate or quadruplicate at 3-4,000 per microtitre well in 90 μl of RPMI culture medium/10% foetal calf serum/penicillin, streptomycin mix, treated with 10 μl of drug (prepared in a dilution plate at 10× concentration required), and allowed to grow until the controls were nearly confluent (6 days).
(§3) SRB: Plates were washed with PBS, fixed with methylated spirits, washed with tap water and stained with 50 μL/well of SRB solution (sulforhodamine, 0.4% in 1% acetic acid), followed by washing with tap water and 1% acetic acid, solubilisation in Tris and absorbance read at 564 nm in an ELISA reader.
(§4) Data was collected using ELISA plate reader software—SOFTmax PRO3.1.2, then imported into EXCEL. The mean and SD of replicates were calculated as a % of control, after subtraction of the blank value (wells with no cells). A graph was plotted of % control vs dose of agent and IC50 (half maximal inhibitory concentration) values determined.
(§5) Tumour cells were seeded in duplicate in 96-well plates at 2-5,000 per microtitre well containing RPMI culture medium/10% foetal calf serum. The cells were allowed to grow until the controls were nearly confluent after 5-6 days. Plates were then washed with PBS, fixed in ethanol and stained with 50 μL/well of SRB solution (sulforhodamine, 0.4% in 1% acetic acid), followed by washing with 1% acetic acid and solubilisation in Tris. The absorbance was read at 564 nm using an ELISA reader.
(§6) The IC50, or concentration required to inhibit cell growth by 50%, was determined from the percentage inhibition versus concentration data using the probit calculation methods of Finney (Finney D J (1971). Probit Analysis. 3rd Edition. Cambridge University Press).
(§7) The inhibitory data from each mixture was used to determine an IC50 of IC50 value, where the concentrations used were the Multiplying Factor values. In order to determine the actual IC50 contribution of each component in the two-component mixture, the IC50 of IC50 value was multiplied by the IC50 of the individual component. This can then be used to determine the reduction in IC50 contribution (ie, reduction in dose) of the chemotherapeutic agent due to the presence of the steroid saponin in the mixture. A simpler way of determining the reduction in dose is to use the following simple formula: […]
The cell seeding and ELISA plate methodology of Example 2 were used for determining inhibition of the K562 cell line.
On the technique in general: In SRB staining, fixed cells bind dye roughly in proportion to their protein.

The test system of experiment [2] is DU145 cell line. Described as above. Particulars: single agent, Example 2. The class given is cell-based, human. The procedure: as §1, §2, §3, §4, §5, §6, §7
Experiment [3] has as its system HT29 cell line. Described as above. Particulars: single agent, Example 2. The class given is cell-based, human. As to the method: as §1, §2, §3, §4, §5, §6, §7
Experiment [4] has as its system A549 cell line. Described as above. The class given is cell-based, human. As to the method: as §1, §2, §3, §4, §5, §6, §7
Experiment [5] deals with PC3 cell line. The experiment is described as above. The class given is cell-based, human. Particulars: single agent, Example 2. As to the method:
as §1, §2, §3, §4, §5, §6, §7

Experiment [6] deals with PC3, DU145, A549 and HT29 cell lines. In words: Cancer cell growth inhibition, IC50 values used in assay for four cell lines (Example 5). The class given is cell-based, human. Particulars: value used to make up 50:50 IC50 mixtures. As to the method:
as §5, §6
The cell seeding and ELISA plate methodology of Example 2 were used for determining inhibition of four cancer cell lines. IC50 values were determined for the steroid saponins dioscin, deltonin and prosapogenin A, and their mixtures with cisplatin, docetaxel, doxorubicin and vincristine, using PC3, DU145, A549 and HT29 cell lines.

For experiment [7], the system named is MCF7 cell line. The experiment is described as follows: Cancer cell growth inhibition, SRB dye assay (single agents and 50:50 IC50 mixtures). In kind it is cell-based, human. Particulars: for Vincristine Dose Reduction: 50:50 IC50 mixture vs vincristine alone, Example 3. The procedure: (§8) Cancer cells were seeded the day before application of drug in triplicate or quadruplicate in 96-well plates, allowed to grow in the presence of drug for 6 days before cell growth relative to untreated control wells was determined with a dye assay. Cells were seeded in triplicate or quadruplicate at 3-4,000 per microtitre well in 90 μl of RPMI culture medium/10% foetal calf serum/penicillin, streptomycin mix, treated with 10 μl of drug (prepared in a dilution plate at 10× concentration required), and allowed to grow until the controls were nearly confluent (6 days). SRB: Plates were washed with PBS, fixed with methylated spirits, washed with tap water and stained with 50 μL/well of SRB solution (sulforhodamine, 0.4% in 1% acetic acid), followed by washing with tap water and 1% acetic acid, solubilisation in Tris and absorbance read at 564 nm in an ELISA reader. Data was collected using ELISA plate reader software—SOFTmax PRO3.1.2, then imported into EXCEL. The mean and SD of replicates were calculated as a % of control, after subtraction of the blank value (wells with no cells). A graph was plotted of % control vs dose of agent and IC50 (half maximal inhibitory concentration) values determined. […] The cells were allowed to grow until the controls were nearly confluent after 5-6 days. Plates were then washed with PBS, fixed in ethanol and stained with 50 μL/well of SRB solution (sulforhodamine, 0.4% in 1% acetic acid), followed by washing with 1% acetic acid and solubilisation in Tris. The absorbance was read at 564 nm using an ELISA reader. […] Cambridge University Press). […] The inhibitory data from each mixture was used to determine an IC50 of IC50 value, where the concentrations used were the Multiplying Factor values. In order to determine the actual IC50 contribution of each component in the two-component mixture, the IC50 of IC50 value was multiplied by the IC50 of the individual component. This can then be used to determine the reduction in IC50 contribution (ie, reduction in dose) of the chemotherapeutic agent due to the presence of the steroid saponin in the mixture. A simpler way of determining the reduction in dose is to use the following simple formula: […]

Experiment [8] relates to LNCap cell line. The description is as above. The class given is cell-based, human. Particulars: for Vincristine Dose Reduction: 50:50 IC50 mixture vs vincristine alone, Example 3. As to the method:
as §8

Experiment [9] deals with HT29 human cells. The experiment is described as follows: In vivo tumour volume, HT29 cells subcutaneously introduced into mice, 5-fluorouracil and deltonin. Set-up: species or system Balb/c nude female mice. Particulars: 5-Fluorouracil 37.5 mg/kg 1 × weekly. The text has this: 5-Fluorouracil (5FU) is the principal chemotherapeutic drug used in treating colon cancer; it is most commonly co-administered with other chemotherapeutic agents. This study compared the co-administration of 5-fluoruracil and deltonin, with administration of mono-administration of both 5-fluorourcil and deltonin.
72 female Balb/c nude female mice were microchipped, weighed and randomised based on body weight into 8 groups with 9 mice per group. […]
HT29 human […] carcinoma cells were cultured in RPMI1640 cell culture medium, which was supplemented with 10% FBS and penicillin-streptomycin (50 IU/mL final concentration). The cells were harvested by trypsinisation, washed twice in HBSS and counted. The cells were then resuspended in HBSS and adjusted to a final volume containing 2×10^7 cells/mL. For inoculation, the needle was introduced through the skin into the subcutaneous space just below the right shoulder, where 100 μL of cells (2×10^6) were discharged.
When the tumour volumes had reached an average of greater than 200 mm^3, treatment was started (Day 0). Tumour volumes were measured 3-times weekly, and determined according to the formula: V(mm^3)=length×diameter^2×π/6
Treatment was continued for 17 days. The mean tumour volumes for each dosage regime are given in Table 24 and are presented graphically in FIG. 1: […]

Where [10] appears, read: single agent, Example 2, read-out: IC50.
Setting [11] is: Example 3, value used to make up 50:50 IC50 mixtures, read-out: IC50 values used in assay.
The mark [12] stands for this setting: Homo sapiens, 144 h, single agent, Example 2, read-out: IC50.
[13] abbreviates: Homo sapiens, 144 h, Example 3, value used to make up 50:50 IC50 mixtures, read-out: IC50 values used in assay.
Setting [14] is: Homo sapiens, 144 h, Example 4, value used to make up 50:50 IC50 mixtures, read-out: IC50 values used in assay.
Where [15] appears, read: Example 4, value used to make up 50:50 IC50 mixtures, read-out: IC50 values used in assay.

On to `N.N.[Cl][Pt][Cl]` [Cisplatin], for which the IC50 came to 820 nM in experiment [1] (setting [10]); 540 nM in [2]; 930 nM in experiment [3]; 1200 nM in experiment [4] (setting [10]); 1400 nM in [5]; 800 nM in [6]. For the same compound, the IC50 in experiment [7] (setting [11]) came out at 800 nM; in experiment [7] (setting [10]) it was 650 nM; in experiment [8] (setting [11]), 800 nM; in experiment [8] (setting [10]) it was 700 nM.
With `COc1cccc2c1C(=O)c1c(O)c3c(c(O)c1C2=O)C[C@@](O)(C(=O)CO)C[C@@H]3O[C@H]1C[C@H](N)[C@H](O)[C@H](C)O1` [Doxorubicin], the IC50 turned out to be 8.5 nM in experiment [1] (setting [12]); 11 nM in [2] (Homo sapiens, DU-145, 144 h); 28 nM in experiment [3] (Homo sapiens, HT-29, 144 h); 16 nM in experiment [4] (setting [12]); 22 nM in experiment [5] (Homo sapiens, PC-3, 144 h); 15 nM in experiment [6] (Homo sapiens). In addition, the 50% inhibitory concentration (IC50) in experiment [7] (setting [13]) was found to be 15 nM; in experiment [7] (setting [12]) it was 14 nM; in [8] (setting [13]), 4 nM; in experiment [8] (setting [12]), 3.9 nM.
On to `C[C@@H]1CC[C@@]2(OC1)O[C@H]1C[C@H]3[C@@H]4CC=C5C[C@@H](O[C@@H]6O[C@H](CO)[C@@H](O[C@@H]7O[C@@H](C)[C@H](O)[C@@H](O)[C@H]7O)[C@H](O)[C@H]6O[C@@H]6O[C@@H](C)[C@H](O)[C@@H](O)[C@H]6O)CC[C@]5(C)[C@H]4CC[C@]3(C)[C@H]1[C@@H]2C` [Dioscin, diosgenin Rha2, [Rha4], Glc], for which the half-inhibitory concentration (IC50) is 1000 nM in experiment [1] (Homo sapiens, 144 h, Example 6, value used to make up 50:50 IC50 mixtures, read-out: IC50 values used in assay); 1000 nM in experiment [4] (setting [14]); 1000 nM in [6] (Homo sapiens); 1000 nM in experiment [7] (setting [13]); 1000 nM in experiment [8] (setting [13]). The “Vincristine Dose Reduction” value in [7] and in experiment [8] was “consistent reduction in dosage” in each case.
For the compound `O=c1[nH]cc(F)c(=O)[nH]1` [5-Fluorouracil (5FU), 5-Fluorouracil], the Mean tumour volume in [9] (Day 0) amounted to 236 mm^3; in [9] (Day 2) it was 280 mm^3; in experiment [9] (Day 4) it was 307 mm^3; in experiment [9] (Day 7), 330 mm^3; in [9] (Day 9), 432 mm^3; in experiment [9] (Day 11) it was 511 mm^3. Further, the Mean tumour volume is recorded as 681 mm^3 in experiment [9] (Day 14), 676 mm^3 in experiment [9] (Day 16) and 824 mm^3 in [9] (Day 18).
`CC(=O)O[C@@]12CO[C@@H]1C[C@H](O)[C@@]1(C)C(=O)[C@H](O)C3=C(C)[C@@H](OC(=O)[C@H](O)[C@@H](NC(=O)OC(C)(C)C)c4ccccc4)C[C@@](O)([C@@H](OC(=O)c4ccccc4)[C@H]21)C3(C)C` [Docetaxel]: the half-maximal inhibitory concentration (IC50) stood at 0.42 nM in experiment [1] (setting [12]); 0.15 nM in [2] (Homo sapiens, DU-145, 144 h); 0.51 nM in experiment [3] (Homo sapiens, HT-29, 144 h); 0.27 nM in experiment [4] (setting [12]); 0.09 nM in [5] (Homo sapiens, PC-3, 144 h); 0.2 nM in experiment [6] (Homo sapiens). Further, the 50% inhibitory concentration (IC50) in [7] (setting [13]) was determined as 0.03 nM; in [7] (setting [12]), 0.039 nM; in experiment [8] (setting [13]) it was 0.03 nM; in experiment [8] (setting [12]), 0.026 nM.
`C[C@@H]1CC[C@@]2(OC1)O[C@H]1C[C@H]3[C@@H]4CC=C5C[C@@H](O[C@@H]6O[C@H](CO)[C@@H](O)[C@H](O)[C@H]6O[C@@H]6O[C@@H](C)[C@H](O)[C@@H](O)[C@H]6O)CC[C@]5(C)[C@H]4CC[C@]3(C)[C@H]1[C@@H]2C` [Prosapogenin A, diosgenin Rha2, Glc]: the 50% inhibitory concentration (IC50) in experiment [1] (Example 6, value used to make up 50:50 IC50 mixtures, read-out: IC50 values used in assay) was found to be 2000 nM; in experiment [4] (setting [15]), 2000 nM; in experiment [6], 2000 nM; in experiment [7] (setting [11]), 2000 nM; in [7] (setting [15]), 2000 nM; in experiment [8] (setting [11]), 2000 nM. The “Vincristine Dose Reduction” value in experiment [7] and in experiment [8] was “effectively zero reduction” in each case.
For the compound `CC(=O)O[C@H]1C(=O)[C@@]2(C)[C@H]([C@H](OC(=O)c3ccccc3)[C@]3(O)C[C@H](OC(=O)[C@H](O)[C@@H](NC(=O)c4ccccc4)c4ccccc4)C(C)=C1C3(C)C)[C@]1(OC(C)=O)CO[C@@H]1C[C@@H]2O` [Paclitaxel], the IC50 is more than 3.3 nM in [1] (setting [12]); 2.7 nM in experiment [2] (Homo sapiens, DU-145, 144 h); more than 3.3 nM in [3] (Homo sapiens, HT-29, 144 h); 3 nM in experiment [4] (setting [14]); 3.2 nM in experiment [4] (setting [12]); 2.1 nM in experiment [5] (Homo sapiens, PC-3, 144 h). The IC50 in experiment [7] (setting [14]) stood at 1 nM; in [7] (setting [12]), 1.1 nM; in experiment [8] (setting [12]), 1.2 nM.

By IC50 is commonly meant the concentration that inhibits the measured activity by half.
